The record followed here is patent publication US10995101B2, “2-oxo-thiazole derivatives as A2A inhibitors and compounds for use in the treatment of cancers” (iTeos Therapeutics SA, priority 2017, dated 2021).

Read-outs that look alike come from different tables or passages of the source.

For one data set, the target named is A2A receptor (Homo sapiens, UniProt P29274). The experiment in a line: Inhibition of cAMP production in HEK cells. It is filed as cell-based. The conditions noted are these: HEK-293 cells with A2A receptor.
A2A receptor, sequence (P29274 whole entry): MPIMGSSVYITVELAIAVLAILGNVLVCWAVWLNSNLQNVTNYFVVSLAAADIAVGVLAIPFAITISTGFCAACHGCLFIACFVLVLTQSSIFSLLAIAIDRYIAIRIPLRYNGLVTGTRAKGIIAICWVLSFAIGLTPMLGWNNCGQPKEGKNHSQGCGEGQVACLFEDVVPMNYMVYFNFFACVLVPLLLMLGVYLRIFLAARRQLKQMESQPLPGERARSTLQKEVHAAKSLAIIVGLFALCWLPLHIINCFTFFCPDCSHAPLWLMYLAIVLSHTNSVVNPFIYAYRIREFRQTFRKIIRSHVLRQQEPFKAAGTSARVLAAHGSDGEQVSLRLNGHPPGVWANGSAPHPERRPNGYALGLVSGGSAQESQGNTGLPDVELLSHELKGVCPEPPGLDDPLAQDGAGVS
The next data set has as its system Caco-2 cells. Put plainly: Permeability and efflux in Caco-2 cells. The note with it: Caco-2 monolayer, 2 μM, 120 minutes, pH 7.4. (In general: Caco-2 monolayers are a common model of the intestinal barrier.)
The target in the next data set is A2AR (Mus musculus, UniProt Q60613). The note with it: for Score (locomotion / immobility): score observed in at least 60-100% of mice for 30 minutes.
A2AR, sequence (Q60613 whole entry): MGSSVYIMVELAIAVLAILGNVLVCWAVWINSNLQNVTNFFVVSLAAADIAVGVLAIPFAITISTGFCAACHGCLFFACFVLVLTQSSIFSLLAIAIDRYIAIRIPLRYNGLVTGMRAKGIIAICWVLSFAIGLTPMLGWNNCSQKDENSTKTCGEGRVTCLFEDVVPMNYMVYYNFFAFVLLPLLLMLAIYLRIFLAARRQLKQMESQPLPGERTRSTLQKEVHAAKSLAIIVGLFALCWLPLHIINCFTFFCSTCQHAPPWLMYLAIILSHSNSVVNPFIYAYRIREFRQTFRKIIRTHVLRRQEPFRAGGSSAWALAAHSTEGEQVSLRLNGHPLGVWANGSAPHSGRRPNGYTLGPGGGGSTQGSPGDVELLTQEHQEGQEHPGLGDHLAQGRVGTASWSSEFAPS

Procedure for Caco-2 cells: 2 μM dosing solutions for reference compounds and test compounds are prepared by spiking the appropriate volume of intermediate solution to TB with and without 1 μM Zosuquidar. The final concentration of DMSO is no more than 1% (v/v).
Caco-2 cells are grown in MEM supplemented with 2 mM L-glutamine, 10% FBS, 100 U/mL penicillin-G and 100 μg/mL streptomycin. The cells are incubated at 37° C., 5% CO2 and relatively saturated humidity. After reaching 80-90% confluency, the cells are gently detached with 0.05% trypsin-EDTA solution.
TB and dosing solutions were pre-warmed to 37° C. before transport assay. The cell monolayer was washed twice with HBSS containing 10 mM HEPES. For A-B (apical to basolateral) directional transport assay, 75 μL dosing solution is added to the apical well. Fill each basolateral well with 250 μL TB. For B-A (basolateral to apical) directional transport assay, 250 μL of dosing solution is added to the basolateral well after filling each apical well with 75 μL TB. […] The plates are incubated for 120 minutes at 37° C. with 5% CO2 and saturated humidity. The time zero samples are generated by mixing 50 μL initial dosing solution of test compound or reference compound with 100 μL TB and 250 μL quench solution (acetonitrile (ACN) or other appropriate solvent with internal standard(s), based on the bioanalytical method development). At 120 minutes, 150 μL of solution is collected from each A-B receiver well followed by addition of 250 μL quench solution to get A-B receiver sample. And for other samples (A-B donor, B-A donor and receiver), 50 μL of solution is collected from each corresponding well followed by addition of 250 μL quench solution and 100 μL TB. All samples are vortex-mixed and centrifuged at 3220 g for 20 minutes. Subsequently, supernatant is diluted with ultra pure water for LC-MS/MS analysis. The concentrations of test compound in all samples are determined by LC-MS/MS and expressed as peak area ratio of analyte to internal standard.
The concentration of samples is expressed using the peak area ratio of Analyte to Internal Standard (Analyte/IS).
The efflux ratio is calculated using the following equation: Efflux ratio=Papp(A−B)/Papp(B−A) • where Papp (A−B) and Papp (B−A) are the Papp values of compound in Apical to Basolateral and Basolateral to Apical directional transport, respectively.

`Nc1nc2c(sc(=O)n2CCN2CCN(c3cc(O[C@H]4CNC[C@@H]4F)c(F)cc3F)CC2)c2nc(-c3ccco3)nn12` [Compound 92, 5-amino-3-(2-(4-(2,4-difluoro-5-(((3S,4S)-4-fluoropyrrolidin-3-yl)oxy)phenyl)piperazin-1-yl)ethyl)-8-(furan-2-yl)thiazolo[5,4-e][1,2,4]triazolo[1,5-c]pyrimidin-2(3H)-one]: the IC50 at A2A receptor (IC50 (nM) (3 nM NECA as agonist, 0.1% BSA), 3 nM NECA as agonist, 0.1% BSA) turned out to be 0.7 nM; at A2A receptor (IC50 (nM) (5 μM Adenosine as agonist, 2.0% HSA), 5 μM Adenosine as agonist, 2.0% HSA), 388 nM. The Efflux ratio in the data set on Caco-2 cells was found to be 101.

Take `COCCOc1ccc(N2CCN(CCn3ncc4c3nc(N)n3nc(-c5ccco5)nc43)CC2)cc1` [Preladenant]: the “Score (locomotion / immobility)” value on A2AR (1 mg/kg PO 30 min prior to CGS21680) is on record as “+”; on A2AR (10 mg/kg PO 30 min prior to CGS21680), 0. Also, the “effect on CGS21680 induced immobility” value at A2AR (P.O. at 10 mg/kg, 30 min prior to CGS21680) is on record as “inhibited CGS21680 induced immobility”.

One may read the IC50 as the point on the concentration scale where inhibition reaches its midpoint. A low value points to greater potency in that assay.
